According to ChEMBL document CHEMBL5506066, “Potency-Enhanced Peptidomimetic VHL Ligands with Improved Oral Bioavailability” (J Med Chem, 2024):
pKd: −log10 of the molar value. Values after ≈ are worked out from the molar mass of the structure shown.

Tests used:
[1] = Solubility of the compound in FaSSIF; format: ADME
[2] = biological target: T1, von Hippel-Lindau disease tumor suppressor (Homo sapiens, UniProt P40337)
[3] = Plasma protein binding in human at 5 uM incubated for 4 hrs by HPLC analysis; format: ADME, cell-free; settings: read-out: PPB (converted)
[4] = Plasma protein binding in CD-1 mouse at 5 uM incubated for 4 hrs by HPLC analysis; format: ADME, cell-free; settings: read-out: PPB (converted)
[5] = Half life in female C57Bl/6 mouse at 10 mg/kg, po measured upto 8 hrs by LC-MS/MS analysis; format: ADME, organism-based; settings: in vivo
[6] = Apparent permeability from apical to basolateral side in MDCKI cells at 10 uM measured upto 180 mins by LC-MS/MS analysis; format: ADME, cell-based, Canis lupus familiaris, MDCK1; settings: dog, MDCK
[7] = Oral bioavailability in female C57Bl/6 mouse at 10 mg/kg measured upto 8 hrs by LC-MS/MS analysis; format: ADME, organism-based; settings: in vivo
[8] = Volume of distribution in female C57Bl/6 mouse at 1 mg/kg, iv measured upto 8 hrs by LC-MS/MS analysis; format: ADME, organism-based; settings: in vivo
[9] = Plasma clearance in female C57Bl/6 mouse at 1 mg/kg, iv measured upto 8 hrs by LC-MS/MS analysis; format: ADME, organism-based
[10] = biological target: T1, von Hippel-Lindau disease tumor suppressor; experiment: biochemical
Description: Binding affinity to VHL (unknown origin)-NanoLuc fusion protein expressed in HEK293 cells assessed as apparent dissociation constant incubated for 30 mins in presence of digitonin by NanoBRET assay

[11] = Permeability of the compound at pH 7.4 in PBS incubated for 16 hrs by LC-MS/MS based PAMPA assay; format: ADME; settings: read-out: permeability
[12] = biological target: T1, von Hippel-Lindau disease tumor suppressor; experiment: Binding affinity to Navi-tagged VHL (unknown origin) assessed as dissociation constant by SPR assay

T1 sequence (P40337 whole entry): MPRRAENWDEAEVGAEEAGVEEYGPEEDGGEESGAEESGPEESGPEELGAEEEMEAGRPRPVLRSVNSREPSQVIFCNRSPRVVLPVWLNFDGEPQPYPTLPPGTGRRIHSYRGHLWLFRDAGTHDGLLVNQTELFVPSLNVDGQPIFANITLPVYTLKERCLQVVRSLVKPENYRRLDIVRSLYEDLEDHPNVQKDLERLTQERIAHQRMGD

pKd [2] | pKd [10] | Structure (SMILES) | further results
6.74 | 6.92 | CC(=O)N[C@H](C(=O)N1C[C@H](O)C[C@H]1C(=O)N[C@@H](C)c1ccc(-c2scnc2C)cc1)C(C)(C)C | solubility [1]: > 200 µM; fraction unbound at 4 h, 5 µM [3]: 0.516; fraction unbound at 4 h, 5 µM [4]: 0.399; half-life [5]: 3.8 h; Papp A→B at 3 h, 10 µM [6]: 0.7 ×10⁻⁶ cm/s; bioavailability [7]: 2.7%; Vd [8]: 0.9 L/kg; clearance [9]: 57.7 mL/min/kg
 |  | CC(=O)N[C@H](C(=O)N1C[C@H](O)C[C@H]1C(=O)N[C@H](Cc1ccc(-c2ccccc2)cc1)C(N)=O)C(C)(C)C | Papp at 16 h [11]: 0.004 ×10⁻⁶ cm/s
> 8.60 | > 8.60 | Cc1ncsc1-c1ccc2c(c1)CCCC[C@@H]2NC(=O)[C@@H]1C[C@@H](O)CN1C(=O)[C@@H](n1cc(C2CC2)nn1)C(C)(C)C | solubility [1]: 190 µM (≈ 110 µg/mL); fraction unbound at 4 h, 5 µM [3]: 0.003; fraction unbound at 4 h, 5 µM [4]: 0.003; half-life [5]: 2.3 h; Papp A→B at 3 h, 10 µM [6]: 8.9 ×10⁻⁶ cm/s; pKd [12]: 9.27; bioavailability [7]: 46.5%; Vd [8]: 0.7 L/kg; clearance [9]: 13.9 mL/min/kg
< 4.24 | < 4.29 | CC(=O)N[C@H](C(=O)N1C[C@H](O)C[C@H]1C(=O)N[C@H](Cc1ccc(C(C)(C)C)cc1)C(N)=O)C(C)(C)C | 
4.40 | 6.51 | CC(C)(C)[C@@H](C(=O)N1C[C@H](O)C[C@H]1C(=O)N[C@H](Cc1ccc(-c2ccccc2)cc1)C(N)=O)n1cc(C(=O)O)nn1 | 
< 4.24 | 4.31 | CC(C)(C)n1nnc(CC(=O)N2C[C@H](O)C[C@H]2C(=O)N[C@H](Cc2ccc(-c3ccccc3)cc2)C(N)=O)n1 | 
< 4.29 | 5.48 | CC(=O)N[C@H](C(=O)N1C[C@H](O)C[C@H]1C(=O)N[C@H](Cc1ccc(-c2scnc2C)cc1)C(N)=O)C(C)(C)C | Papp at 16 h [11]: 0.19 ×10⁻⁶ cm/s
< 4.24 | < 4.29 | CC(=O)NC1(C(=O)N2C[C@H](O)C[C@H]2C(=O)N[C@H](Cc2ccc(-c3ccccc3)cc2)C(N)=O)CC1 | 
4.81 | 5.41 | CC(=O)N[C@H](C(=O)N1C[C@H](O)C[C@H]1C(=O)N[C@H](Cc1ccc(-c2ccccc2)cc1)C(N)=O)C1(C)CC1 | 
4.98 | 5.31 | CC(=O)N1CCCC[C@H]1C(=O)N1C[C@H](O)C[C@H]1C(=O)N[C@H](Cc1ccc(-c2ccccc2)cc1)C(N)=O | 
4.58 | 5.05 | CSCC[C@H](NC(C)=O)C(=O)N1C[C@H](O)C[C@H]1C(=O)N[C@H](Cc1ccc(-c2ccccc2)cc1)C(N)=O | 
5.18 | 5.54 | CC(=O)N[C@H](C(=O)N1C[C@H](O)C[C@H]1C(=O)N[C@H](Cc1ccc(-c2ccc(F)cn2)cc1)C(N)=O)C(C)(C)C | 
< 4.24 | < 4.29 | NC(=O)[C@@H](Cc1ccc(-c2ccccc2)cc1)NC(=O)[C@@H]1C[C@@H](O)CN1C(=O)Cc1ccccn1 | 
7.07 | 7.15 | CC(C)(C)[C@@H](C(=O)N1C[C@H](O)C[C@H]1C(=O)N[C@H](Cc1ccc(-c2ccccc2)cc1)C(N)=O)n1cc(C2CC2)nn1 | 
< 4.24 | < 4.29 | CC(=O)N[C@]1(C(=O)N2C[C@H](O)C[C@H]2C(=O)N[C@H](Cc2ccc(-c3ccccc3)cc2)C(N)=O)CC1(C)C | 
< 4.24 | < 4.29 | NC(=O)[C@@H](Cc1ccc(-c2ccccc2)cc1)NC(=O)[C@@H]1C[C@@H](O)CN1C(=O)Cc1ccon1 | 
< 4.24 | < 4.29 | CC(=O)N[C@H](C(=O)N1C[C@H](O)C[C@H]1C(=O)N[C@H](Cc1ccccc1)C(N)=O)C(C)(C)C | 
